# According to publication PMC9527276, “Guanine inhibits the growth of human glioma and melanoma cell lines by interacting with GPR23” (Frontiers in Pharmacology, 2022):
# Target: T1, GPR23 (Homo sapiens, UniProt Q99677)
# T1 construct: gene LPAR4; native receptor in U87 glioma cell membranes; control vs GPR23-siRNA silenced
# Experiment: [3H]-guanine radioligand saturation binding on U87 membranes; Bmax falls on GPR23 silencing
# T1 sequence (Q99677 whole entry): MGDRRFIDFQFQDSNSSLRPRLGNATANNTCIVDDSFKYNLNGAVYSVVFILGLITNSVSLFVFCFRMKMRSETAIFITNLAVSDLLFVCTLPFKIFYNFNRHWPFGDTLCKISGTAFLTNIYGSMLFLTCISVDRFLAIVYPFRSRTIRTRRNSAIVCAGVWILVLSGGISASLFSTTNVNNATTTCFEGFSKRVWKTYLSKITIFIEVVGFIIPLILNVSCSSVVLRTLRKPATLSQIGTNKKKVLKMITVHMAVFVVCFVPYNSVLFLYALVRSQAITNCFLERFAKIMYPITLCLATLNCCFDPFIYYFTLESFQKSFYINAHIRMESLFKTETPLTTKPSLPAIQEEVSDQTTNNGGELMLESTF
smiles,measurement,value
"Nc1nc2nc[nH]c2c(=O)[nH]1 [GUA, guanine]",Kd,29.4 ± 4.07 nM
